{
  "source": "paper PMC4128413",
  "about": "(Tetrahedron letters, 2014)",
  "key": {"Cytotoxicity": {"assay": "Cytotoxicity", "type": "cell-based", "settings": "rat"}, "[1]": {"test_system": "Leishmania donovani MHOM-ET-67/L82 strain", "assay": "Antiprotozoal activity against L. donovani", "type": "cell-based", "settings": "read-out: IC50 L. donovani"}, "schistosomiasis parasite": {"test_system": "schistosomiasis parasite", "settings": "cited from earlier work"}},
  "data": [
    {"smiles": "COc1cc([C@@H]2c3cc4c(cc3[C@H](O)[C@H]3COC(=O)[C@H]23)OCO4)cc(OC)c1OC", "note": "[Podophyllotoxin]", "values": [
      {"measurement": "IC50", "setting": "Cytotoxicity", "value": 7.2, "unit": "nM"}
    ]},
    {"smiles": "CCCCCCCCCCCCCCCCOP(=O)([O-])OCC[N+](C)(C)C", "note": "[Miltefosine]", "values": [
      {"measurement": "IC50", "setting": "[1]", "value": 340, "unit": "nM"}
    ]},
    {"smiles": "O=C(C1CCC(O)CC1)N1CC(=O)N2CCc3ccccc3C2C1", "note": "(stereo not drawn) [Compound 2]", "values": [
      {"measurement": "antischistosomal effectiveness relative to praziquantel (1) (in words)", "setting": "schistosomiasis parasite", "value": "equal to or considerably less effective than the parent drug"}
    ]}
  ]
}
